Laboratory results from US8455616B2, “Nuclear translocation peptide” (National Center for Global Health and Medicine, priority 2007, dated 2013).
Ends that are not written are not given here.

What was measured:
[1] = cited from earlier work
[2] = system: HeLa cells; assay: Cytotoxicity test (damage to intracellular DNA, anti-γ-H2AX staining); assay type: cell-based, human; details: HeLa cells incubated 2 days with peptide, fragmented double-stranded DNA stained with anti-γ-H2AX antibody, FIG. 8
Method: Testing of the peptide of the present invention for damage to intracellular DNA was performed in the following manner. • (Day 1) HeLa cells were seeded onto a dish at a concentration of 5×10^4 cells/dish, and cultured in 10% FCS/DMEM medium (2 mL). • (Day 2) Recombinant Vpr (protein derived from Vpr), C45D18 (Peptide 9), and LR20 (Peptide 1) were added, and the cells were incubated for 2 days. • (Day 4) The following sequence of treatments was performed on the cells: The dish was washed with PBS→the cells were fixed with 4% paraformaldehyde→after incubation for 20 min on ice, the cells were washed with PBS→200 μL of 1% Triton X-100/2M HCl solution was added, and the cells were incubated at room temperature for 30 min→blocking with 200 μL of 1% BSA was performed at room temperature for 1 h→anti-γ-H2AX antibody solution was added, and the fragmented double-stranded DNA was stained (37° C. for 30 min)→cy3-anti-mouse IgG solution was added, and the cells were incubated at room temperature for 30 min→the nuclei were stained with DAPI/PBST (3 min)→the cells were mounted on glass slides.
In FIG. 8 the stained parts indicate fragmented DNA.

[3] = system: HeLa cells; assay: Cellular and nuclear translocation capability of magnetic particles in HeLa cells; assay type: cell-based, human; details: peptide-CMDM conjugates, iron 0.7 mg/mL, thymidine-arrested HeLa cells, 18 h exposure, T2 relaxation time by NMR, FIG. 1
Excerpt: With respect to the amount of cellular and nuclear translocation of the aforementioned peptide-magnetic nanoparticle conjugate, the translocation capability of the peptide of the present invention can be compared with that of a previous PTD by adding the conjugate to cultured cells, separating and recovering the cytoplasm and nuclei after letting the culture stand for a set period of time, measuring the T2 relaxation time by NMR, and measuring the amount of magnetic nanoparticles taken up by the cells.
After 18 h of exposure, the cells were washed with PBS and recovered, and centrifugal separation (2000 rpm for 5 min) was performed to precipitate the cells into pellets. After the cells were resuspended by adding 700 mL of PBS, they were lysed using a Dounce homogenizer and centrifuged (2000 rpm for 5 min) into pellets. […] Then the T2 relaxation time of each resulting fraction was measured by NMR. Concurrently, the protein concentration of each fraction was measured by BSA protein assay.
Because a fixed relation is established between T2 relaxation time and magnetic substance concentration, the magnetic substance concentration can be calculated by assuming that the T2 relaxation of the sample is the same before and after the test. The calculated concentration was corrected further using the protein concentration.

Peptide 12: PTD peptide discovered during research to enhance the function of the Tat peptide (Mukai et al.), synthesized with additional GGC (THRLPRRRRRR; YM-3 peptide)
cellular translocation capability relative to the Tat peptide ([1]; Mukai et al., Biol. Pharm. Bull. 29(8), 1570 (2006)): approximately three times higher than that of the Tat peptide

RIFIHFRIGC [Peptide 4, R I F I H F R I G C]
DNA damage (cytotoxicity) [2]: no damage to DNA was seen

CC[C@H](C)[C@H](NC(=O)[C@H](CCCNC(=N)N)NC(=O)[C@H](CO)NC(=O)[C@H](Cc1c[nH]cn1)NC(=O)[C@H](CCCNC(=N)N)NC(=O)[C@H](CS)NC(=O)CNC(=O)[C@@H](NC(=O)[C@H](CCCNC(=N)N)NC(=O)[C@H](Cc1ccccc1)NC(=O)[C@H](Cc1c[nH]cn1)NC(=O)[C@@H](NC(=O)[C@H](Cc1ccccc1)NC(=O)[C@H](CC(C)C)NC(=O)[C@H](CC(C)C)NC(=O)[C@H](CCC(N)=O)NC(=O)[C@H](CCC(N)=O)NC(=O)[C@H](CC(C)C)NC(=O)[C@@H](NC(=O)[C@@H](N)CCCNC(=N)N)[C@@H](C)CC)[C@@H](C)CC)[C@@H](C)CC)C(=O)O [Peptide 1, RILQQLLFIHFRIGCRHSRI]
DNA damage (cytotoxicity) [2]: extent of DNA damage is decreased

R I L Q Q L L F I H F R I G C [Peptide 3]
cellular and nuclear translocation capability [3]: best cellular and nuclear translocation capability

DTWAGVEAIIRILQQLLFIHFRIGCRH [Peptide 9]
translocation capability relative to a protein originating in Vpr ([1]; Taguchi et al., Biochem. Biophys. Res. Comm., 320, 18 (2004)): stronger translocation capability than a protein originating in Vpr | translocation capability of conjugates with enzymatic proteins relative to the Tat peptide ([1]; conjugates of C45D18 and enzymatic proteins, into a cell and into a nucleus, Taguchi et al. (2004)): greater than that of the Tat peptide
